# Experimental data reported in patent US20200095241A1, “SUBSTITUTED 1,2,4-THIADIAZOLYLPYRROLONES AND 1,2,4-THIADIAZOLYLHYDANTOINS AND SALTS THEREOF AND USE THEREOF AS HERBICIDES” (Bayer CropScience Aktiengesellschaft, priority 2016, published 2020).
# Legend:
# Assay type in all cases: in vivo
# Poa annua = assay: Pre-emergence herbicidal action; conditions: 1280 g/ha, after about 3 weeks
# Description: (§1) Seeds of monocotyledonous and dicotyledonous weed plants and crop plants were placed in plastic or organic planting pots and covered with soil. The compounds of the invention, formulated in the form of wettable powders (WP) or as emulsion concentrates (EC), were then applied onto the surface of the covering soil as aqueous suspension or emulsion with addition of 0.5% additive at a water application rate of 600 l/ha (converted). After the treatment, the pots were placed in a greenhouse and kept under good growth conditions for the test plants. After about 3 weeks, the effect of the preparations was scored visually in comparison with untreated controls as percentages. For example, 100% activity=the plants have died, 0% activity=like control plants. Tables B1 to B15 below show the effects of selected compounds of the general formula (I) according to Tables I.1 to I.44 on various harmful plants and an application rate corresponding to 1280 g/ha or 320 g/ha, which were obtained by the experimental procedure mentioned above.
# Setaria viridis [1] = assay: Pre-emergence herbicidal action; conditions: Setaria viridis, 504 h, 1280 g/ha, after about 3 weeks, read-out: Setaria viridis, herbicidal effect scored visually
# Description: as §1
# Stellaria media [2] = assay: Pre-emergence herbicidal action; conditions: 1280 g/ha, after about 3 weeks
# Description: as §1
# Matricaria inodora [3] = assay: Pre-emergence herbicidal action; conditions: 1280 g/ha, after about 3 weeks
# Description: as §1
# Stellaria media [4] = assay: Post-emergence herbicidal action; conditions: Stellaria media, 504 h, 1280 g/ha, about 3 weeks after treatment, read-out: Stellaria media, herbicidal activity rated visually
# Description: (§2) Seeds of monocotyledonous and dicotyledonous weeds and crop plants were placed in sandy loam in plastic or wood-fiber pots, covered with soil and cultivated in a greenhouse under controlled growth conditions. 2 to 3 weeks after sowing, the test plants were treated at the one-leaf stage. The compounds of the invention, formulated in the form of wettable powders (WP) or as emulsion concentrates (EC), were then sprayed onto the green parts of the plants as aqueous suspension or emulsion with addition of 0.5% additive at a water application rate of 600 l/ha (converted). After the test plants had been kept in the greenhouse under optimum growth conditions for about 3 weeks, the activity of the preparations was rated visually in comparison to untreated controls. For example, 100% activity=the plants have died, 0% activity=like control plants. Tables A1 to A12 below show the effects of selected compounds of the general formula (I) according to Tables I.1 to I.44 on various harmful plants and an application rate corresponding to 1280 g/ha or 320 g/ha, which were obtained by the experimental procedure mentioned above.
# Matricaria inodora [5] = assay: Post-emergence herbicidal action; conditions: 1280 g/ha, about 3 weeks after treatment
# Description: as §2
# Polygonum convolvulus = assay: Pre-emergence herbicidal action; conditions: 1280 g/ha, after about 3 weeks
# Description: as §1
# Alopecurus myosuroides = assay: Pre-emergence herbicidal action; conditions: 1280 g/ha, after about 3 weeks
# Description: as §1
# Viola tricolor = assay: Pre-emergence herbicidal action; conditions: 1280 g/ha, after about 3 weeks
# Description: as §1
# Abutilon theophrasti = assay: Post-emergence herbicidal action; conditions: 1280 g/ha, about 3 weeks after treatment
# Description: as §2
# Setaria viridis [6] = assay: Post-emergence herbicidal action; conditions: 1280 g/ha, about 3 weeks after treatment
# Description: as §2
smiles,measurement,setting,value
"CC1=C(Cl)C(=O)N(c2nc(C(C)C)ns2)C1O (stereo not shown) [I.3-5, 3-Chloro-4-methyl-5-hydroxy-1-(3-isopropyl-1,2,4-thiadiazol-5-yl)-1,5-dihydro-2H-pyrrol-2-one]","Poa annua, herbicidal effect scored visually",Poa annua,90%
same,pest or weed control at 1280 g/ha,Setaria viridis [1],90%
same,pest or weed control at 1280 g/ha,"Stellaria media [2]; Stellaria media, 504 h, read-out: Stellaria media, herbicidal effect scored visually",90%
same,pest or weed control at 1280 g/ha,"Matricaria inodora [3]; Tripleurospermum inodorum, 504 h, read-out: Matricaria inodora, herbicidal effect scored visually",90%
same,pest or weed control at 1280 g/ha,Stellaria media [4],100%
same,"Matricaria inodora, herbicidal activity rated visually",Matricaria inodora [5],100%
CC1=C(Br)C(=O)N(c2nc(C)ns2)C1O (stereo not shown) [I.5-2],"Polygonum convolvulus, herbicidal effect scored visually",Polygonum convolvulus,80%
same,"Stellaria media, herbicidal effect scored visually",Stellaria media [2],90%
same,"Matricaria inodora, herbicidal effect scored visually",Matricaria inodora [3],90%
same,"Alopecurus myosuroides, herbicidal effect scored visually",Alopecurus myosuroides,80%
same,"Viola tricolor, herbicidal effect scored visually",Viola tricolor,90%
same,"Abutilon theophrasti, herbicidal activity rated visually",Abutilon theophrasti,80%
same,"Setaria viridis, herbicidal activity rated visually",Setaria viridis [6],80%
